# From patent US20240350481A1, “USE OF N-MYRISTOYL TRANSFERASE (NMT) INHIBITORS IN THE TREATMENT OF CANCER, AUTOIMMUNE DISORDERS, AND INFLAMMATORY DISORDERS” (PACYLEX PHARMACEUTICALS INC., priority 2020, published 2024)
# How the values were obtained:
# [1] = Method: Data collected were the same as in the Charles River xenograft study—clinical signs, body weight, tumor volume, blood samples from 3 mice/group for hematology and clinical chemistry (ALT, AST, BUN, creatinine, CK), and tissue samples collected and fixed from the same 3 mice. Liver, kidneys, and small intestine also were weighed.
# (§1) The dose volume was 10 mL/kg.
# [2] = T cell viability by flow cytometry; type: cell-based; conditions: human, purified T cells from healthy donors; for viability at 4 days, 20 nM: Drug 20 nM; for viability at 4 days, 100 nM: Drug 100 nM; for viability at 4 days, 500 nM: Drug 500 nM
# Method: Human peripheral blood mononuclear cells (PBMC) and purified T cells from healthy donors were purchased from […] Technologies (CA). Cells (7.5×10^6/ml) were cultured in the RPMI supplementing with 10% heat-inactivated fetal bovine serum (vWR), 1% penicillin/streptomycin (SigmaMillipore), 1% sodium pyruvate, and 1% non-essential amino acids (Gibco) in 24 well plates in the presence of 100 IU/ml interleukin 2 ([…] Technologies or HIV reagent program (managed by ATCC).
# Then, cells were induced with T cell activator ([…]) in the presence of the drugs for 2 more days. After 4 days, the viability of treated T cells was analyzed using Flow cytometry. The supernatants for both PBMC and T cells were collected for further analysis.
# [3] = test system: hematological cancer cell lines; experiment: ChemPartner cell line screen, CellTiter Blue; type: cell-based; conditions: 72 h; 3 days of treatment; read-out: median IC50
# Method: (§2) 131 cell lines were seeded in 96-well plate, black wall, tissue culture treated (from Corning, Cat.3904) and cultured following ATCC formulation. Cell viability after 72 hrs and 144 hrs was measured using Cell Titer Blue Viability Assay (from Promega, Cat. G8081, Lot. No. 0000190181) and fluorescence at 560/590 nm was recorded with Enspire (PerkinElmer). EC50 was calculated using XLfit software (5.5).
# [4] = test system: cell lines originating from solid tumors; experiment: ChemPartner cell line screen, CellTiter Blue; type: cell-based; conditions: 72 h; 3 days of treatment; 10 μM is the highest dose tested; read-out: median IC50
# Method: as §2
# DOHH2 tumors = experiment: DOHH2 xenograft, tumor growth; type: in vivo, mouse
# Method: DOHH2 xenograft study at Charles River's facility: […] On Day 1 of the study, animals were given a rehydration solution ad libitum in an effort to reduce dehydration during the dosing phase of the study. […] The dose volume was 10 mL/kg.
# [5] = Mouse IV; cited from earlier work
# [6] = test system: patient DLBCL3 derived lymphoma xenograft; experiment: DLBCL3 patient-derived xenograft, tumor growth; type: in vivo, mouse; conditions: 20 mg/kg subcutaneous daily, 21 days
# Method: as §1
# (§3) TGI (%)=(Vcontrol−Vtreated)/(Vcontrol−Vnitial)*100.
# The pleural fluid was collected in cold sterile 20% RPMI 1640 medium and neoplastic cells were isolated with Ficoll-Paque Plus (GE Healthcare) and re-suspended in […] (Life Technologies) with 20% foetal bovine serum (Life Technologies, Carlsbad, CA). […] The cell suspension was injected subcutaneously in the flank of 4-6-week-old NODscid mice. When the tumors reached a maximum of 1000 mm^3, the mice were sacrificed, tumors were harvested, and a necropsy was performed. Xenograft tumors were immediately frozen, fixed in formalin, and stored in 90% foetal bovine serum, and 10% dimethyl sulfoxide or placed in RPMI 1640 medium. This process was repeated to produce subsequent generations of patient-derived xenograft models (P2, P3, P4, . . . ). To evaluate the maintenance of the morphology and main characteristics of the tumor of origin, formalin-fixed, paraffin-embedded tissue sections from patient tumor samples and xenografts of all established patient-derived xenograft models were stained with haematoxylin and eosin. These sections were also immunostained to measure the expression of various markers. A clinical pathologist reviewed all the slides. […]
# [7] = Toxicology in DLBCL3 patient derived xenograft mice; type: in vivo, mouse; conditions: for Absolute Basophil cells: normal [0-0.2]; for Absolute Monocyte cells: normal [0-0.4]; for Basophil %: normal [0-2]; for Eosinophil %: normal [0-3.9]; for Monocyte %: normal [0-7.5]; for Absolute Neutrophil cells: normal [0.1- 2.4]; for WBC: normal [1.8-10.7]; for MPV: normal [5-20]; for RDW %: normal [12.4-27]
# Method: as §1
# BL2 xenografts = experiment: BL2 xenograft, tumor growth; type: in vivo, mouse
# Source text: BL2 xenograft study at Jackson Laboratory: One hundred five (105) 6 week old female NOD.CB17-Prkdc scid/J (NOD scid, Stock #001303) mice were transferred to the in vivo research laboratory in Sacramento, CA. The mice were ear notched for identification and housed in individually and positively ventilated polysulfone cages with HEPA filtered air at a density of 5 mice per cage. Initially cages were changed every two weeks. The animal room was lighted entirely with artificial fluorescent lighting, with a controlled 12 hour light/dark cycle (6 am to 6 pm light). The normal temperature and relative humidity ranges in the animal rooms were 20-26° C. and 30-70%, respectively. The animal rooms were set to have up to 15 air exchanges per hour. Filtered tap water, acidified to a pH of 2.5 to 3.0, and standard lab chow were provided ad libitum.
# as §1, §3
# [8] = DLBCL patient derived xenograft, PCLX-001 20 mg/kg/day
# [9] = DLBCL patient derived xenograft, PCLX-001 50 mg/kg/day
smiles,measurement,setting,value
Cc1c(N[S+](=O)([O-])c2c(Cl)cc(-c3ccnc(N4CCNCC4)c3)cc2Cl)c(CC(C)C)nn1C [PCLX-001],clinical pathology and anatomic pathology,"[1]; 20, 50, 60 mg/kg/day",no clinical pathology or anatomic pathology findings
same,dehydration and body weight,[1]; 50 or 60 mg/kg/day,Dehydration and weight loss
same,clinical signs,"[1]; most mice in groups given PCLX-001 (20, 50, 60 mg/kg/day)",Signs of ill health
same,"viability at 4 days, 20 nM",[2]; T cells viability (#1),9%
same,"viability at 4 days, 100 nM",[2]; T cells viability (#1),8%
same,"viability at 4 days, 500 nM",[2]; T cells viability (#1),10%
same,"viability at 4 days, 20 nM",[2]; T cells viability (#2),66%
same,"viability at 4 days, 100 nM",[2]; T cells viability (#2),60%
same,"viability at 4 days, 500 nM",[2]; T cells viability (#2),62%
same,"viability at 4 days, 20 nM",[2]; T cells viability (#3),76%
same,"viability at 4 days, 100 nM",[2]; T cells viability (#3),71%
same,"viability at 4 days, 500 nM",[2]; T cells viability (#3),68%
same,IC50,[3],166 nM
same,IC50,[4],≥ 10000 nM
same,mean tumor growth inhibition (TGI),"DOHH2 tumors; 50 mg/kg daily with 5-day interruption, by day 16",95%
same,reduction of tumor size,"DOHH2 tumors; 50 mg/kg daily, by day 7",up to 70%
same,average tumor size,"DOHH2 tumors; 50 mg/kg daily, day 7",44.0±8.1 mm^3
same,Clearance,[5],3 mL/min/kg
same,TGI,[6],66%
same,loss of body weight,[7]; 50 mg/kg daily,~15%
same,"clinical signs, clinical pathology, anatomic pathology",[7]; 20 and 50 mg/kg,"no clinical signs of toxicity, effects on clinical pathology parameters, or anatomic pathology findings"
same,Hematocrit %,[7]; [8],47.13 ± 1.1%
same,MCV,[7]; [8],53.5 ± 0.36
same,Neutrophil %,[7]; [8],57.17 ± 9.40%
same,RBC,[7]; [8],8.81 ± 0.15 M/ul
same,Absolute Basophil cells,[7]; [8],0 ± 0
same,Absolute Monocyte cells,[7]; [8],0.23 ± 0.06
same,Basophil %,[7]; [8],0.1 ± 0.04%
same,Eosinophil %,[7]; [8],0.26 ± 0.08%
same,Monocyte %,[7]; [8],15.48 ± 4.35%
same,Absolute Neutrophil cells,[7]; [8],0.86 ± 0.22
same,WBC,[7]; [8],1.49 ± 0.24 K/ul
same,MPV,[7]; [8],4.93
same,RDW %,[7]; [8],18.07 ± 0.03%
same,Hematocrit %,[7]; [9],42.47 ± 4.04%
same,MCV,[7]; [9],50.83 ± 0.35
same,Neutrophil %,[7]; [9],58.04%
same,RBC,[7]; [9],8.36 ± 0.83 M/ul
same,Absolute Basophil cells,[7]; [9],0 ± 0
same,Absolute Monocyte cells,[7]; [9],0.37 ± 0.07
same,Basophil %,[7]; [9],0.04 ± 0.04%
same,Eosinophil %,[7]; [9],0.32 ± 0.1%
same,Monocyte %,[7]; [9],17.24%
same,Absolute Neutrophil cells,[7]; [9],1.28 ± 0.34
same,Absolute Lymphocyte cells,"[7]; DLBCL patient derived xenograft, PCLX-001 50 mg/kg/day, normal [0.9-9.3]",0.52 ± ? .12
same,WBC,[7]; [9],2.17 ± 0.5 K/ul
same,MPV,[7]; [9],5.27 ± 0.18
same,RDW %,[7]; [9],20.37 ± 0.37%
same,MCH,"[7]; DLBCL patient derived xenograft, PCLX-001 50 mg/kg/day, normal [14.1-19.3]",12.5 pg
same,MCHC,"[7]; DLBCL patient derived xenograft, PCLX-001 50 mg/kg/day, normal [30.2-34.2]",24.53 ± 0.24 g/dL
same,Lymphocyte %,"[7]; DLBCL patient derived xenograft, PCLX-001 50 mg/kg/day, normal [55.8-91.6]",24.36 ± 2.93%
same,tumor regression,"BL2 xenografts; 20 mg/kg daily, by day 9",42.5%
same,tumor regression,"BL2 xenografts; 56 mg/kg daily, 13 days",100%
same,tumor regression,"BL2 xenografts; 60 mg/kg daily, 13 days",100%
